Experiment [1] relates to ovariectomized (OVX) rat model of postmenopausal bone loss. Briefly: Whole body DEXA analysis (BMD, percent fat mass, body weight) in OVX rat model. The format is in vivo. Particulars: for change in whole body BMD between day 0 and day 120: 120 days; for body weight gain: day 0 to 120. As to the method: (§1) One hundred twenty female Sprague-Dawley rats were purchased from Harlan (Indiapolis, Ind.). The animals were housed three per cage and were allowed free access to tap water and commercial rat chow (Harlan Teklad 22/5 rodent diet—8640). During the course of the study, the animals were maintained on a 12 hr light:dark cycle. This study was reviewed and approved by the Institutional Laboratory Care and Use Committee of The Ohio State University. […] Dosing solutions were prepared daily by dissolving drug in dimethyl sulfoxide (DMSO) and diluting in polyethylene glycol 300 (PEG 300). All doses were administered for 120 days via daily subcutaneous injections in a volume of 0.20 ml.
Total body bone mineral density (BMD), percent fat mass (FM), and body weight (BW) were determined by dual energy x-ray absorptiometry (DEXA) (GE, Lunar Prodigy™) using the small animal software (Lunar enCORE, version 6.60.041) on days 0 and 120. Total body data was obtained by selecting an area encompassing the entire animal as the region of interest during data processing. For scanning, the animals were anesthetized with ketariine:xylazine (87:13 mg/kg).
(§2) The results were analyzed using Tukey's honestly significant difference method in a one-way analysis of variance and expressed as mean ±S.E.M. Significance was reported when P<0.05. SPSS 11.5.0 (Chicago, Ill.) was used to analyze the results.

Experiment [2] has the same test system. As to the kind of experiment: Ex vivo DEXA analysis of L2-L4 vertebrae BMD. The format is in vivo. Particulars: 120 days. As to the method:
as §1
Immediately following the whole body DEXA scan on day 120, groups 1-11 were sacrificed, and the lumbar vertebrae, femurs, and tibia were excised and cleared of soft tissue. Group 12 was sacrificed at day 210. The excised bones were scanned through a 3 in deep room temperature water bath, to simulate soft tissue and prevent beam-hardening effects. The L2-L4 vertebrae were selected as a region of interest and analyzed for BMD by DEXA.
as §2

Experiment [3] shares this test system. As to the kind of experiment: Femoral pQCT analysis of mid-shaft cortical content. It is filed as in vivo. Particulars: 120 days. As to the method: as §1
(§3) The right femurs from groups 5, 6, 7, 9, 10, and 12 were sent to Skeletech, Inc. (Bothell, Wash.) for pQCT analysis and biomechanical testing. The femur was subject to pQCT scan using a Stratec XCT RM and associated software (Stratec Medizintechnik GmbH, Pforzheim, Germany. Software version 5.40 C). The femur was scanned at the mid-shaft. The position was verified using scout views and scan results from one 0.5 mm slice perpendicular to the long axis of the femur. Cortical bone mineral content was analyzed. After pQCT analysis, the de-fleshed whole femur was used in the three point bending test. The femur was placed on the lower supports of a three point bending fixture with anterior side facing downward in an Instron Mechanical Testing Machine (Instron 4465 retrofitted to 5500). The upper loading device was aligned to the center of the femoral shaft. The load was applied at a constant displacement rate of 6 mm/min until the femur broke. The location of maximal load was selected manually and values were calculated by machine's software (Merlin II, Instron). Maximum load was measured directly by the mechanical testing machine. The length between two supports was set to 14mm.
as §2

For experiment [4] the test system is unchanged. As to the kind of experiment: Femoral three point bending test (maximum load). The format is in vivo. The conditions noted are these: OVX rats, 120 days. As to the method:
as §1, §3
The results were analyzed using Tukey's honestly significant difference method in a one-way analysis of variance and expressed as mean ±S.E.M. Significance was reported when P<0.05. […]

Experiment [5] has as its system myosin heavy chain (MHC) IIb mRNA. Briefly: Myosin heavy chain (MHC) IIb mRNA expression in masseter muscle by RT-PCR. It is filed as in vivo, rat. Particulars: intact female rats, untreated control = 100%. From the text: MHC is the predominant protein in skeletal muscle encoded by a multigene family expressed in a tissue-specific and developmentally regulated manner. In steady state, MRNA expression usually parallels the pattern of MHC protein expression. Because transcription of MHC MRNA occurs in advance of MHC protein translation, and the increased sensitivity of RT-PCR compared to western blotting, rapid changes in mRNA expression can be detected and used to analyze the subtle dynamic effects of muscle anabolism.
The masseter muscle dissected from untreated intact female rats was set as the control level (representing 100%) of MHC IIb expression (FIG. 1A). Intact female rats treated with androgens were evaluated against the untreated controls for the effect of treatment on MHC IIb from masseter.

Experiment [6] relates to ovariectomized female rats. Briefly: Bone mineral content by whole body DEXA after ovariectomy (Example 2). The format is in vivo, rat. The conditions noted are these: OVX female rats, 30 day treatment period.
A further experiment concerns castrated male rats. Briefly: Androgenic and anabolic effects in castrated male rats. The format is in vivo, rat.

Results on three compounds are retold here after patent US20050032750A1, “Treating androgen deficiency in female (ADIF)-associated conditions with SARMS” (priority 2003, published 2005).

With `C[C@]12CCC(=O)C[C@@H]1CC[C@@H]1[C@@H]2CC[C@]2(C)[C@@H](O)CC[C@@H]12` [DHT, dihydrotestosterone, reference compound], the “change in whole body BMD between day 0 and day 120” value in experiment [1] (OVX rats, DHT 1 mg/day sc) is “not significantly different from OVX controls”; in experiment [1] (intact rats, DHT 1 mg/day sc), “prevented the age related increase in BMD”. The “L2-L4 BMD” value in experiment [2] (OVX rats, DHT 1 mg/day) was “only able to partially maintain the L2-L4 BMD”; in experiment [2] (intact rats, DHT 1 mg/day), “caused a reduction in L2-L4 BMD”. In experiment [3] (OVX rats, DHT 1 mg/day), the “Cortical Content (CC) of mid-shaft femur” value is “partially prevented the loss in CC, these results were not significant”. Moreover, the “femur biomechanical strength (maximum load)” value in experiment [4] (DHT 1 mg/day) was “prevent the loss in bone strength”.
Consider `CCC(=O)O[C@H]1CC[C@H]2[C@@H]3CCC4=CC(=O)CC[C@]4(C)[C@H]3CC[C@]12C` [testosterone propionate, reference compound], for which, in experiment [5], the “transcription of MHC type IIb, % of untreated control” value is given as 133%.
Turning to `CC(=O)Nc1ccc(OC[C@](C)(O)C(=O)Nc2ccc([N+](=O)[O-])c(C(F)(F)F)c2)cc1` [Compound VI, S-3-(4-acetylamino-phenoxy)-2-hydroxy-2-methyl-N-(4-nitro-3-trifluoromethyl-phenyl)-propionamide], the “transcription of MHC type IIb, % of untreated control” value in experiment [5] was found to be 137%. For the same compound, in experiment [6], the “bone mineral content compared with intact control or placebo-treated groups” value was “maintained and improved the bone mineral content”. Further, the “prostate restored, % of intact animals” value with castrated male rats worked out at 34%. Also, the “seminal vesicles restored, % of intact animals” value with castrated male rats turned out to be 28%. For the same compound, the “change in whole body BMD between day 0 and day 120” value was “not significantly different from OVX controls” in experiment [1] (OVX rats, 0.1 mg/day sc) and “prevent the loss of whole body BMD” in experiment [1] (OVX rats, doses greater than 0.1 mg/day sc). Further, the “percent body fat at day 120” value in experiment [1] (OVX rats, 3.0 mg/day) is given as “not different from intact controls”. Further, the body weight gain entry was “gained more weight than the other groups” in experiment [1] (OVX rats, 3.0 mg/day) and “dose-dependent trend in body weight gain” in experiment [1] (OVX rats, 0.1-3.0 mg/day). Besides, the “percent fat mass at day 120” value in experiment [1] (OVX rats, 0.1-3.0 mg/day) is “dose dependent decrease in percent fat mass”. Further, the “mean percent fat mass at day 120” value in experiment [1] (intact rats, 1 mg/day) is reported as “lower in intact Compound VI treated animals than intact controls”. Moreover, the “L2-L4 BMD” value in experiment [2] (OVX rats, 0.5 and 3.0 mg/kg dose groups) is “significantly higher BMD than the OVX control group”; in experiment [2] (OVX rats, greater than 0.3 mg/day) it was “not significantly different from intact controls”. The “Cortical Content (CC) of mid-shaft femur” value in experiment [3] (OVX rats, 1.0 mg/day) is listed as “completely prevent the loss in CC”; in experiment [3] (OVX rats, 3.0 mg/day), “increase the CC in OVX animals above that of intact animals”; in experiment [3] (intact rats, 1 mg/day), “not different from intact controls”. Also, the “femur biomechanical strength (maximum load)” value in experiment [4] (1.0 mg/day) is given as “prevent the loss of bone strength”; in experiment [4] (3.0 mg/day) it was “increase in maximum load”.
